Results as given in publication PMC7134596 (Febs Letters, 2004).

Molecular target: SARS‐CoV M^pro (Severe acute respiratory syndrome-related coronavirus, UniProt P0C6X7)
Assay: biochemical

CC1=C(C(=O)OCCc2ccccc2)C(c2ccccc2[N+](=O)[O-])C2=C(CCCC2=O)N1 (stereo not shown) [MP576, 3‐quinolinecarboxylic acid, 1,4,5,6,7,8‐hexahydro‐2‐methyl‐4‐(2‐nitrophenyl)‐5‐oxo‐, 2‐phenylethyl ester] was tested, and the Ki was 2.9 ± 0.3 µM.
